One may read the IC50 as the midpoint of a concentration-inhibition curve.

This passage reports IC50 results from patent US7553972B2, “Benzamide inhibitors of the P2X7 receptor” (Pfizer, Inc., priority 2003, dated 2009).

This assay has as its target T1, P2X7 receptor (Homo sapiens, UniProt Q99572).
T1 construct: endogenous in cells
T1 sequence (Q99572 1-595): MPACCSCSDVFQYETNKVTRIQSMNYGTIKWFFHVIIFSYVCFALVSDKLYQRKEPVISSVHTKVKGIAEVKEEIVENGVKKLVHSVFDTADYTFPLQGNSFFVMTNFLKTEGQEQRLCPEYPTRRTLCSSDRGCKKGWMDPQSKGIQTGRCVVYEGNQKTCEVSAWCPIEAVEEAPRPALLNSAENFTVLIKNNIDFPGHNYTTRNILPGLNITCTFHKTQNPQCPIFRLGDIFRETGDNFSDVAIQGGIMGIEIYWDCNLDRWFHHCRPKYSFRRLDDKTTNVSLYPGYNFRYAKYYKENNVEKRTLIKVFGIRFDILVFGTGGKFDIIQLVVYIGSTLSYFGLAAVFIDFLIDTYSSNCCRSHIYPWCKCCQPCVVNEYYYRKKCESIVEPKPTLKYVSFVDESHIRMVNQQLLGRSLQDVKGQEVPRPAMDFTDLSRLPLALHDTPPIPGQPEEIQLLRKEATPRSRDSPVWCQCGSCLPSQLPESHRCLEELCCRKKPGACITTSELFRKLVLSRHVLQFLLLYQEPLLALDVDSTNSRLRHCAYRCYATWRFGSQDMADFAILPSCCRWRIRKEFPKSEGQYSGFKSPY
Briefly: Inhibition of ATP-stimulated IL-1β release from LPS-activated blood monocytes (P2X7 antagonist activity, ELISA readout). The conditions noted are these: monocytes from normal volunteers, 10 ng/ml LPS 2 h, compound 30 min, 2 mM ATP 3 h, IL-1β by ELISA, triplicate wells; read-out: IC50 (inhibit 50% of the stimulation of the release of IL-1β from monocytes by ATP). The format is cell-based. The method, then: In like manner, the compounds of the invention can be tested for antagonist activity at the P2X7 receptor using the cytokine IL-1β as the readout. Blood collected from normal volunteers in the presence of heparin is fractionated using lymphocyte separation medium obtained from Organon Technica (Westchester, Pa.). […] The resulting cell pellet was suspended in 10 ml of Maintenance Medium and a cell count was performed. In an average experiment, 2×10^5 mononuclear cells are seeded into each well of 96-well plates in a total volume of 0.1 ml. Monocytes are allowed to adhere for 2 hours, after which the supernatants are discarded and the attached cells are rinsed twice and then incubated in Maintenance Medium overnight at 37° C. in a 5% CO2 environment.
The cultured monocytes can be activated with 10 ng/ml LPS (E. coli serotype 055:B5; Sigma Chemicals, St. Louis, Mo.). […] ATP then is introduced (from a 100 mM stock solution, pH 7) to achieve a final concentration of 2 mM and the plate is incubated at 37° C. for an additional 3 hours. Media were harvested and clarified by centrifugation, and their IL-1[…] content was determined by ELISA (R&D Systems; Minneapolis, Minn.).
Blood was collected from normal volunteers in the presence of heparin, and was fractionated using lymphocyte separation medium obtained from Organon Technica (Westchester, Pa.). […] The resulting cell pellet was suspended in 10 ml of Maintenance Medium and a cell count was performed. Approximately, 2×10^5 mononuclear cells were seeded into each well of 96-well plates in a total volume of 0.1 ml. Monocytes were allowed to adhere for 2 hours, after which the supernatants were discarded and the attached cells were rinsed twice and then incubated in Maintenance Medium overnight at 37° C. in a 5% CO2 environment.
The cultured monocytes were activated with 10 ng/ml LPS (E. coli serotype 055:B5; Sigma Chemicals, St. Louis, Mo.). […] ATP then was introduced (from a 100 mM stock solution, pH 7) to achieve a final concentration of 2 mM and the plate was incubated at 37° C. for an additional 3 hours. Media were harvested and clarified by centrifugation, and their IL-1β content was determined by ELISA (R&D Systems; Minneapolis, Minn.).
(In general: An ELISA detects its analyte on a solid surface through an enzyme-linked reagent.)
Regarding `Cc1cc(-c2ccc(Cl)c(C(=O)NCC3(O)CCCCCC3)c2)n(C[C@@H](O)CN)n1` [Example 55, 5-[2-(3-Amino-2-hydroxy-propyl)-5-methyl-2H-pyrazol-3-yl]-2-chloro-N-(1-hydroxy-cycloheptylmethyl)-benzamide], the IC50 was 365 nM. Take `O=C(NCC1(O)CCCCCC1)c1cc(-c2cc(C(F)(F)F)n[nH]2)ccc1Cl` [Example 23, 2-Chloro-N-(1-hydroxy-cycloheptylmethyl)-5-(5-trifluoromethyl-1H-pyrazol-3-yl)-benzamide]: the IC50 is 200 nM. For `CCC(CO)NC(=O)Cn1nc(-c2ccc(Cl)c(C(=O)NCC3(O)CCCCCC3)c2)cc1C` (stereo not shown) [Example 48, 2-Chloro-N-(1-hydroxy-cycloheptylmethyl)-5-{1-[(1-hydroxymethyl-propylcarbamoyl)-methyl]-5-methyl-1H-pyrazol-3-yl}-benzamide], the IC50 amounted to 10.5 nM.

`NC(=O)Cn1ccc(-c2ccc(Cl)c(C(=O)NCC3(O)CCCCCC3)c2)n1` [Example 35, 5-(1-Carbamoylmethyl-1H-pyrazol-3-yl)-2-chloro-N-(1-hydroxy-cycloheptylmethyl)-benzamide]: the IC50 came to 121 nM. Regarding `Cc1cc(-c2ccc(Cl)c(C(=O)NCC3(O)CCCCCC3)c2)nn1CCN` [Example 33, 5-[1-(2-Amino-ethyl)-5-methyl-1H-pyrazol-3-yl]-2-chloro-N-(1-hydroxy-cycloheptylmethyl)-benzamide], the IC50 came out at 11 nM. The same measure for `Cc1cc(-c2ccc(Cl)c(C(=O)NCC3(O)CCCCCC3)c2)nn1CC(=O)NC[C@H](C)O` [Example 51, 2-Chloro-N-(1-hydroxy-cycloheptylmethyl)-5-{1-[(2-hydroxy-propylcarbamoyl)-methyl]-5-methyl-1H-pyrazol-3-yl}-benzamide]: 5 nM. As for `Cc1ccc(-c2ccc(Cl)c(C(=O)NCC3(O)CCCC(C)(C)C3)c2)nc1` (stereo not shown) [Example 2, 2-Chloro-N-(1-hydroxy-3,3-dimethyl-cyclohexylmethyl)-5-(5-methyl-pyridin-2-yl)-benzamide], the IC50 is 11 nM. With `Cc1cc(-c2ccc(Cl)c(C(=O)NCC3(O)CCCCCC3)c2)nn1C[C@@H](O)CO` [Example 40, 2-Chloro-5-[1-(2,3-dihydroxy-propyl)-5-methyl-1H-pyrazol-3-yl]-N-(1-hydroxy-cycloheptylmethyl)-benzamide], the IC50 amounted to 8 nM. In the case of `Cc1cc(-c2ccc(Cl)c(C(=O)NCC3(O)CCCCCC3)c2)nn1CCO` [Example 25, 2-Chloro-N-(1-hydroxy-cycloheptylmethyl)-5-[1-(2-hydroxy-ethyl)-5-methyl-1H-pyrazol-3-yl]-benzamide], the IC50 turned out to be 4 nM. With `Cc1cc(-c2ccc(Cl)c(C(=O)NCC3(O)CCCC(C)(C)C3)c2)[nH]n1` (stereo not shown) [Example 13, 2-Chloro-N-(1-hydroxy-3,3-dimethyl-cyclohexylmethyl)-5-(5-methyl-2H-pyrazol-3-yl)-benzamide], the IC50 amounted to 8 nM.
